Reference: ChEMBL document CHEMBL1201862, “PubChem BioAssay data set” (2004)
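Dose response: 5 concentrations. Exposure: 48 h. Format: 96-well plates. Endpoint: linear interpolation; highest concentration if not reached. The concentration for 50% growth inhibition is given as GI50.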 Activity calls are given as the source filed them. Rule as the data show it: active = GI50 up to about 1.1 µM and inactive = higher.

How the values were obtained:
Test in all cases: NCI anticancer screen, dose series, 48 h
RXF 393 = system: RXF 393
SK-MEL-28 = system: SK-MEL-28
OVCAR-5 = system: OVCAR-5
NCI-H23 = system: NCI-H23
MCF7 = system: MCF7
DU-145 = system: DU-145
SF-539 = system: SF-539
HL-60 = system: HL-60
K562 = system: K562
HCT-116 = system: HCT-116
BT-549 = system: BT-549
NCI-H522 = system: NCI-H522
UO-31 = system: UO-31
COLO 205 = system: COLO 205
786-0 = system: 786-0
LOX IMVI = system: LOX IMVI
UACC-62 = system: UACC-62
OVCAR-8 = system: OVCAR-8
A498 = system: A498
U-251 = system: U-251
CAKI-1 = system: CAKI-1
Malme-3M = system: Malme-3M
UACC-257 = system: UACC-257
RPMI-8226 = system: RPMI-8226
MOLT-4 = system: MOLT-4
MDA-MB-435 = system: MDA-MB-435
SNB-75 = system: SNB-75
OVCAR-3 = system: OVCAR-3
NCI-H460 = system: NCI-H460
M14 = system: M14
KM12 = system: KM12
EKVX = system: EKVX
MDA-N = system: MDA-N
SF-295 = system: SF-295
MDA-MB-231 = system: MDA-MB-231
OVCAR-4 = system: OVCAR-4
IGROV-1 = system: IGROV-1
NCI-H226 = system: NCI-H226
SK-OV-3 = system: SK-OV-3
NCI/ADR-RES = system: NCI/ADR-RES
HCT-15 = system: HCT-15
HOP-92 = system: HOP-92
HCC 2998 = system: HCC 2998
CCRF-CEM = system: CCRF-CEM
SN12C = system: SN12C
SW-620 = system: SW-620
SK-MEL-5 = system: SK-MEL-5
PC-3 = system: PC-3
HOP-62 = system: HOP-62
Hs-578T = system: Hs-578T
ACHN = system: ACHN
SNB-19 = system: SNB-19
T47D = system: T47D
HT-29 = system: HT-29
SR = system: SR
SF-268 = system: SF-268
TK-10 = system: TK-10
A549 = system: A549
SK-MEL-2 = system: SK-MEL-2

SMILES: CO/[N+]([O-])=C\C(=O)N/C=C/C(=O)O
- GI50 (RXF 393): > 100 µM (inactive)
- GI50 (SK-MEL-28): > 100 µM (inactive)
- GI50 (OVCAR-5): > 100 µM (inactive)
- GI50 (NCI-H23): > 100 µM (inactive)
- GI50 (MCF7): > 100 µM (inactive)
- GI50 (DU-145): > 100 µM (inactive)
- GI50 (SF-539): > 100 µM (inactive)
- GI50 (HL-60): > 100 µM (inactive)
- GI50 (K562): > 100 µM (inactive)
- GI50 (HCT-116): > 100 µM (inactive)
- GI50 (BT-549): > 100 µM (inactive)
- GI50 (NCI-H522): > 100 µM (inactive)
- GI50 (UO-31): > 100 µM (inactive)
- GI50 (COLO 205): > 100 µM (inactive)
- GI50 (786-0): > 100 µM (inactive)
- GI50 (LOX IMVI): > 100 µM (inactive)
- GI50 (UACC-62): > 100 µM (inactive)
- GI50 (OVCAR-8): > 100 µM (inactive)
- GI50 (A498): > 100 µM (inactive)
- GI50 (U-251): > 100 µM (inactive)
- GI50 (CAKI-1): > 100 µM (inactive)
- GI50 (Malme-3M): > 100 µM (inactive)
- GI50 (UACC-257): > 100 µM (inactive)
- GI50 (RPMI-8226): 79.6 µM (inactive)
- GI50 (MOLT-4): > 100 µM (inactive)
- GI50 (MDA-MB-435): > 100 µM (inactive)
- GI50 (SNB-75): > 100 µM (inactive)
- GI50 (OVCAR-3): > 100 µM (inactive)
- GI50 (NCI-H460): > 100 µM (inactive)
- GI50 (M14): > 100 µM (inactive)
- GI50 (KM12): > 100 µM (inactive)
- GI50 (EKVX): > 100 µM (inactive)
- GI50 (MDA-N): > 100 µM (inactive)
- GI50 (SF-295): > 100 µM (inactive)
- GI50 (MDA-MB-231): > 100 µM (inactive)
- GI50 (OVCAR-4): > 100 µM (inactive)
- GI50 (IGROV-1): > 100 µM (inactive)
- GI50 (NCI-H226): > 100 µM (inactive)
- GI50 (SK-OV-3): > 100 µM (inactive)
- GI50 (NCI/ADR-RES): > 100 µM (inactive)
- GI50 (HCT-15): > 100 µM
- GI50 (HOP-92): > 100 µM (inactive)
- GI50 (HCC 2998): > 100 µM (inactive)
- GI50 (CCRF-CEM): > 100 µM (inactive)
- GI50 (SN12C): > 100 µM (inactive)
- GI50 (SW-620): > 100 µM (inactive)
- GI50 (SK-MEL-5): > 100 µM (inactive)
- GI50 (PC-3): > 100 µM (inactive)
- GI50 (HOP-62): > 100 µM (inactive)
- GI50 (Hs-578T): > 100 µM (inactive)
- GI50 (ACHN): > 100 µM (inactive)
- GI50 (SNB-19): > 100 µM (inactive)
- GI50 (T47D): > 100 µM (inactive)
- GI50 (HT-29): > 10 µM (inactive)
- GI50 (SR): > 100 µM (inactive)
- GI50 (SF-268): > 100 µM (inactive)

SMILES: COc1ccc(CC2CCc3nc(N)nc(N)c3C2)cc1OC (stereo unspecified)
- GI50 (RXF 393): 0.0292 µM (active)
- GI50 (SK-MEL-28): 36.4 µM (inactive)
- GI50 (TK-10): 7.6 µM (inactive)
- GI50 (OVCAR-5): 1.51 µM (inactive)
- GI50 (NCI-H23): 0.564 µM (active)
- GI50 (MCF7): 1.15 µM (inactive)
- GI50 (DU-145): 0.681 µM (active)
- GI50 (SF-539): 2.25 µM (inactive)
- GI50 (HL-60): 14.8 µM (inactive)
- GI50 (K562): 18.3 µM (inactive)
- GI50 (HCT-116): 0.0349 µM (active)
- GI50 (BT-549): 0.246 µM (active)
- GI50 (NCI-H522): 0.489 µM (active)
- GI50 (A549): 0.0481 µM (active)
- GI50 (UO-31): 13.8 µM (inactive)
- GI50 (COLO 205): 2.94 µM (inactive)
- GI50 (786-0): 0.0551 µM (active)
- GI50 (LOX IMVI): 0.065 µM (active)
- GI50 (UACC-62): 0.0612 µM (active)
- GI50 (OVCAR-8): 14.6 µM (inactive)
- GI50 (A498): 17.3 µM (inactive)
- GI50 (SK-MEL-2): > 57.3 µM (inactive)
- GI50 (U-251): 38.6 µM (inactive)
- GI50 (CAKI-1): 2.29 µM (inactive)
- GI50 (Malme-3M): 0.83 µM (active)
- GI50 (UACC-257): 15.3 µM (inactive)
- GI50 (RPMI-8226): 13.1 µM (inactive)
- GI50 (MOLT-4): 0.522 µM (active)
- GI50 (MDA-MB-435): 1.41 µM (inactive)
- GI50 (SNB-75): 1.46 µM (inactive)
- GI50 (OVCAR-3): 5.47 µM (inactive)
- GI50 (NCI-H460): 0.0411 µM (active)
- GI50 (M14): 0.851 µM (active)
- GI50 (KM12): 1.28 µM (inactive)
- GI50 (EKVX): 2.01 µM (inactive)
- GI50 (MDA-N): 0.0507 µM (active)
- GI50 (SF-295): 0.168 µM (active)
- GI50 (MDA-MB-231): 12.9 µM (inactive)
- GI50 (OVCAR-4): > 43.3 µM (inactive)
- GI50 (IGROV-1): 0.11 µM (active)
- GI50 (NCI-H226): 12.1 µM (inactive)
- GI50 (NCI/ADR-RES): 1.29 µM (inactive)
- GI50 (HCT-15): 0.104 µM
- GI50 (HOP-92): 36 µM (inactive)
- GI50 (HCC 2998): 0.687 µM (active)
- GI50 (SN12C): 22.9 µM (inactive)
- GI50 (SW-620): 6.03 µM (inactive)
- GI50 (SK-MEL-5): 0.4 µM (active)
- GI50 (PC-3): 0.0716 µM (active)
- GI50 (HOP-62): 13.7 µM (inactive)
- GI50 (Hs-578T): > 56.1 µM (inactive)
- GI50 (ACHN): 0.16 µM (active)
- GI50 (T47D): 18.9 µM (inactive)
- GI50 (HT-29): 1.79 µM (inactive)
- GI50 (SR): 3.7 µM (inactive)
- GI50 (SF-268): 0.173 µM (active)

SMILES: C=C1c2nc3ccccc3n2C=C(c2ccccc2)N1c1ccc([N+](=O)[O-])cc1
- GI50 (RXF 393): 3.01 µM (inactive)
- GI50 (SK-MEL-28): 24.6 µM (inactive)
- GI50 (TK-10): 4.32 µM (inactive)
- GI50 (OVCAR-5): 10.7 µM (inactive)
- GI50 (NCI-H23): 9.38 µM (inactive)
- GI50 (MCF7): 3.61 µM (inactive)
- GI50 (DU-145): 6.92 µM (inactive)
- GI50 (SF-539): 1.05 µM (active)
- GI50 (HL-60): 7.01 µM (inactive)
- GI50 (K562): 7.35 µM (inactive)
- GI50 (HCT-116): 2.52 µM (inactive)
- GI50 (BT-549): 9.16 µM (inactive)
- GI50 (NCI-H522): 3.67 µM (inactive)
- GI50 (A549): 2.31 µM (inactive)
- GI50 (UO-31): 3.3 µM (inactive)
- GI50 (COLO 205): 6.52 µM (inactive)
- GI50 (786-0): 0.855 µM (active)
- GI50 (LOX IMVI): 5.36 µM (inactive)
- GI50 (UACC-62): 7.26 µM (inactive)
- GI50 (OVCAR-8): 4.49 µM (inactive)
- GI50 (A498): 8.38 µM (inactive)
- GI50 (SK-MEL-2): 17.7 µM (inactive)
- GI50 (U-251): 5.33 µM (inactive)
- GI50 (CAKI-1): 9.2 µM (inactive)
- GI50 (Malme-3M): 3.01 µM (inactive)
- GI50 (UACC-257): 15.3 µM (inactive)
- GI50 (RPMI-8226): 8.81 µM (inactive)
- GI50 (MOLT-4): 29.2 µM (inactive)
- GI50 (MDA-MB-435): 5.61 µM (inactive)
- GI50 (SNB-75): 3.15 µM (inactive)
- GI50 (OVCAR-3): 7.06 µM (inactive)
- GI50 (NCI-H460): 1.72 µM (inactive)
- GI50 (M14): 8.57 µM (inactive)
- GI50 (KM12): 4.14 µM (inactive)
- GI50 (EKVX): 4.85 µM (inactive)
- GI50 (MDA-N): 7.6 µM (inactive)
- GI50 (SF-295): 3.37 µM (inactive)
- GI50 (MDA-MB-231): 2.39 µM (inactive)
- GI50 (OVCAR-4): 0.324 µM (active)
- GI50 (IGROV-1): 4.84 µM (inactive)
- GI50 (NCI-H226): 5.5 µM (inactive)
- GI50 (SK-OV-3): 1.79 µM (inactive)
- GI50 (NCI/ADR-RES): 7.18 µM (inactive)
- GI50 (HCT-15): 5.75 µM
- GI50 (HOP-92): 3.9 µM (inactive)
- GI50 (HCC 2998): 3.49 µM (inactive)
- GI50 (CCRF-CEM): 9.46 µM (inactive)
- GI50 (SN12C): 7.89 µM (inactive)
- GI50 (SW-620): 14.4 µM (inactive)
- GI50 (SK-MEL-5): 4.02 µM (inactive)
- GI50 (PC-3): 15.3 µM (inactive)
- GI50 (HOP-62): 4.92 µM (inactive)
- GI50 (Hs-578T): 3.04 µM (inactive)
- GI50 (ACHN): 1.67 µM (inactive)
- GI50 (SNB-19): 5.65 µM (inactive)
- GI50 (T47D): 6.25 µM (inactive)
- GI50 (HT-29): 3.47 µM (inactive)
- GI50 (SR): 4.95 µM (inactive)
- GI50 (SF-268): 8.11 µM (inactive)
